Assay results taken from US20250108038A1 (priority 2023, published 2025).
Several values for one entry are separate records, joined by “and”; a condition that tells them apart may be missing. Identical values can stand only once.

System: Long Evans rats
Experiment: Behavioral satiety sequence (BSS)
Assay type: in vivo, Long Evans rat
Excerpt: The Behavioural Satiety Sequence (BSS) is a technique used to evaluate physiological satiety. It is based on the expression of a sequence of behaviors including eating, grooming, locomotor activity, followed by resting, which are typically observed in rodents post-ingestion (Halford et al, 1998, Pharmacology Biochemistry and Behaviour. 61(2): 159-168). The BSS is a widely used model for determining the effects of novel pharmaceuticals on food intake and measures of satiety in rodents (Oliveira et al, 2011, Revista de Nutrição. 24(4) 619-628), and to discriminate the cause of reduced food intake following pharmacological manipulation. For example, treatments that may reduce food intake by non-specific mechanisms, such as immobility, malaise, and taste adulteration, will disrupt this sequence (Halford et al, 1998, Pharmacology Biochemistry and Behaviour. 61(2): 159-168).
Specifically, 12 male Long-Evans rats were food-deprived for 22 h with a 2 h feeding period each day. Rats were trained to consume daily food during the 2 h period over 25 days. The testing phase was initiated once the rats consistently consumed 16-18 g of food per day with ≤10% variance in amount of feed consumed. Feeding took place in designated individual boxes in a quiet room separate from the housing room. Continuous remote monitoring via video camera during feeding was used to assess the BSS. Food consumption was measured by weighing the total available food before and after the 2 h feeding window, correcting for spillage. Lorcaserin (1 mg/kg) was included as a reference control (Higgins et al, 2011, Neuropsychopharmacology. 37(5): 1177-1191). Subjects were tested using a repeated-measures, Latin square design with 2-3 days wash-out between treatment cycles.
On scheduled test days, animals were monitored remotely via video camera during the feeding access period. The occurrence of four mutually exclusive behaviors (eating/drinking, grooming, active, rest) were individually scored. Over the 2 h feeding period, behaviors were assessed every 30 seconds. Scores were compiled into 23 5 min timebins (timebin 24 was removed due to early removal of animals) and the frequency of each behavior within each timebin was calculated to determine a temporal frequency of each measure (Rodgers et al, 2010, Pharmacology Biochemistry and Behaviour. 97: 3-14). Percentage time was plotted for each behavioral sequence in each timebin to compare between treatment groups (Higgins et al, 2011, Neuropsychopharmacology. 37(5): 1177-1191).

[1] = Compound I-19 0.1 mg/kg, AVG of animals LT-1 to LT-12, 0-0.5 hours
[2] = Compound I-19 0.1 mg/kg, raw data per animal LT-1 to LT-12, 0-0.5 hours
[3] = Compound I-19 0.1 mg/kg, raw score per animal (LT-1 to LT-12)
[4] = Compound I-19 0.3 mg/kg, AVG of animals LT-1 to LT-12

SMILES: Clc1ccc(C2(OCC3OCCO3)c3ccccc3C3=NCCN32)cc1 (stereo not drawn) [Compound I-19]
- BSS scoring E (eating/drinking), Time Bin 4 (15-20 TOTAL), AVG [1]: 0.87
- BSS scoring E (eating/drinking), Time Bin 5 (20-25 TOTAL), AVG [1]: 0.89
- BSS scoring E (eating/drinking), Time Bin 6 (25-30 TOTAL), AVG [1]: 0.81
- BSS scoring G (grooming), Time Bin 1 (0-5 TOTAL), AVG [1]: 0.02
- BSS scoring G (grooming), Time Bin 2 (5-10 TOTAL), AVG [1]: 0.00
- BSS scoring G (grooming), Time Bin 3 (10-15 TOTAL), AVG [1]: 0.03
- BSS scoring G (grooming), Time Bin 4 (15-20 TOTAL), AVG [1]: 0.03
- BSS scoring G (grooming), Time Bin 5 (20-25 TOTAL), AVG [1]: 0.00
- BSS scoring G (grooming), Time Bin 6 (25-30 TOTAL), AVG [1]: 0.04
- BSS scoring R (resting), Time Bin 1 (0-5 TOTAL), AVG [1]: 0.00
- BSS scoring R (resting), Time Bin 2 (5-10 TOTAL), AVG [1]: 0.00
- BSS scoring R (resting), Time Bin 3 (10-15 TOTAL), AVG [1]: 0.00
- BSS scoring R (resting), Time Bin 4 (15-20 TOTAL), AVG [1]: 0.02
- BSS scoring R (resting), Time Bin 5 (20-25 TOTAL), AVG [1]: 0.03
- BSS scoring R (resting), Time Bin 6 (25-30 TOTAL), AVG [1]: 0.02
- BSS scoring A (active), Time Bin 1 (0-5 TOTAL) [2]: 0 (3×) and 1 (7×) and 2 (2×)
- BSS scoring A (active), Time Bin 2 (5-10 TOTAL) [2]: 1 (5×) and 0 (7×)
- BSS scoring A (active), Time Bin 3 (10-15 TOTAL) [2]: 1 (3×) and 0 (9×)
- BSS scoring A (active), Time Bin 4 (15-20 TOTAL) [2]: 5 and 0 (8×) and 4 and 1 (2×)
- BSS scoring A (active), Time Bin 5 (20-25 TOTAL) [2]: 1 (3×) and 0 (7×) and 3 (2×)
- BSS scoring A (active), Time Bin 6 (25-30 TOTAL) [2]: 3 (2×) and 1 (6×) and 0 (3×) and 4
- BSS scoring E (eating/drinking), Time Bin 1 (0-5 TOTAL) [2]: 10 (3×) and 8 (4×) and 9 (5×)
- BSS scoring E (eating/drinking), Time Bin 2 (5-10 TOTAL) [2]: 9 (5×) and 10 (7×)
- BSS scoring E (eating/drinking), Time Bin 3 (10-15 TOTAL) [2]: 9 (6×) and 10 (6×)
- BSS scoring E (eating/drinking), Time Bin 4 (15-20 TOTAL) [2]: 5 and 10 (5×) and 9 (5×) and 4
- BSS scoring E (eating/drinking), Time Bin 5 (20-25 TOTAL) [2]: 9 (3×) and 10 (6×) and 6 and 7 (2×)
- BSS scoring E (eating/drinking), Time Bin 6 (25-30 TOTAL) [2]: 5 (2×) and 8 (4×) and 9 (2×) and 10 (3×) and 7
- BSS scoring G (grooming), Time Bin 1 (0-5 TOTAL) [2]: 0 (10×) and 1 (2×)
- BSS scoring G (grooming), Time Bin 2 (5-10 TOTAL) [2]: 0
- BSS scoring G (grooming), Time Bin 3 (10-15 TOTAL) [2]: 0 (9×) and 1 (3×)
- BSS scoring G (grooming), Time Bin 4 (15-20 TOTAL) [2]: 0 (9×) and 1 (3×)
- BSS scoring G (grooming), Time Bin 5 (20-25 TOTAL) [2]: 0
- BSS scoring G (grooming), Time Bin 6 (25-30 TOTAL) [2]: 0 (7×) and 1 (5×)
- BSS scoring R (resting), Time Bin 1 (0-5 TOTAL) [2]: 0
- BSS scoring R (resting), Time Bin 2 (5-10 TOTAL) [2]: 0
- BSS scoring R (resting), Time Bin 3 (10-15 TOTAL) [2]: 0
- BSS scoring R (resting), Time Bin 4 (15-20 TOTAL) [2]: 0 (10×) and 1 (2×)
- BSS scoring R (resting), Time Bin 5 (20-25 TOTAL) [2]: 0 (9×) and 1 (2×) and 2
- BSS scoring R (resting), Time Bin 6 (25-30 TOTAL) [2]: 2 and 0 (11×)
- BSS scoring A (active), Time Bin 19 (90-95 TOTAL) [3]: 8 and 2 (6×) and 5 and 1 and 7 and 0 and 3
- BSS scoring A (active), Time Bin 20 (95-100 TOTAL) [3]: 1 (4×) and 0 (4×) and 2 (3×) and 6
- BSS scoring A (active), Time Bin 21 (100-105 TOTAL) [3]: 0 (8×) and 3 and 1 and 4 and 2
- BSS scoring A (active), Time Bin 22 (105-110 TOTAL) [3]: 0 (6×) and 4 and 1 (2×) and 2 and 5 and 3
- BSS scoring A (active), Time Bin 23 (110-115 TOTAL) [3]: 1 and 0 (5×) and 4 and 2 (2×) and 8 and 5 and 3
- BSS scoring A (active), Time Bin 24 (115-120 TOTAL) [3]: 0 (5×) and 4 and 1 (2×) and 2 (2×) and 3 and 6
- BSS scoring E (eating/drinking), Time Bin 19 (90-95 TOTAL) [3]: 2 and 4 (3×) and 6 and 0 and 7 (3×) and 3 and 10 and 8
- BSS scoring E (eating/drinking), Time Bin 20 (95-100 TOTAL) [3]: 9 and 5 and 10 (3×) and 7 (2×) and 0 and 8 and 6 (2×) and 3
- BSS scoring E (eating/drinking), Time Bin 21 (100-105 TOTAL) [3]: 10 (3×) and 3 and 9 (3×) and 0 and 8 (2×) and 5 and 6
- BSS scoring E (eating/drinking), Time Bin 22 (105-110 TOTAL) [3]: 10 (2×) and 3 and 9 (2×) and 0 and 6 (2×) and 8 (3×) and 4
- BSS scoring E (eating/drinking), Time Bin 23 (110-115 TOTAL) [3]: 9 (5×) and 10 and 3 (2×) and 0 and 4 and 5 and 7
- BSS scoring E (eating/drinking), Time Bin 24 (115-120 TOTAL) [3]: 10 (2×) and 5 and 8 (3×) and 2 and 0 (2×) and 6 and 1 and 4
- BSS scoring G (grooming), Time Bin 19 (90-95 TOTAL) [3]: 0 (8×) and 1 (4×)
- BSS scoring G (grooming), Time Bin 20 (95-100 TOTAL) [3]: 0 (8×) and 2 (2×) and 1 (2×)
- BSS scoring G (grooming), Time Bin 21 (100-105 TOTAL) [3]: 0 (8×) and 1 (3×) and 2
- BSS scoring G (grooming), Time Bin 22 (105-110 TOTAL) [3]: 0 (8×) and 2 and 1 (3×)
- BSS scoring G (grooming), Time Bin 23 (110-115 TOTAL) [3]: 0 (8×) and 1 (4×)
- BSS scoring G (grooming), Time Bin 24 (115-120 TOTAL) [3]: 0 (9×) and 1 (2×) and 2
- BSS scoring R (resting), Time Bin 19 (90-95 TOTAL) [3]: 0 (7×) and 4 and 1 (2×) and 9 and 3
- BSS scoring R (resting), Time Bin 20 (95-100 TOTAL) [3]: 0 (6×) and 2 (2×) and 10 and 1 (3×)
- BSS scoring R (resting), Time Bin 21 (100-105 TOTAL) [3]: 0 (7×) and 4 and 1 (2×) and 10 and 2
- BSS scoring R (resting), Time Bin 22 (105-110 TOTAL) [3]: 0 (4×) and 1 (5×) and 8 and 3 and 2
- BSS scoring R (resting), Time Bin 23 (110-115 TOTAL) [3]: 0 (3×) and 2 (2×) and 1 (6×) and 4
- BSS scoring R (resting), Time Bin 24 (115-120 TOTAL) [3]: 0 (8×) and 1 (2×) and 8 and 5
- BSS scoring A (active), Time Bin 19 (90-95 TOTAL), AVG [4]: 0.21
- BSS scoring A (active), Time Bin 20 (95-100 TOTAL), AVG [4]: 0.17
- BSS scoring A (active), Time Bin 21 (100-105 TOTAL), AVG [4]: 0.06
- BSS scoring A (active), Time Bin 22 (105-110 TOTAL), AVG [4]: 0.08
- BSS scoring A (active), Time Bin 23 (110-115 TOTAL), AVG [4]: 0.28
- BSS scoring A (active), Time Bin 24 (115-120 TOTAL), AVG [4]: 0.14
- BSS scoring E (eating/drinking), Time Bin 19 (90-95 TOTAL), AVG [4]: 0.63
- BSS scoring E (eating/drinking), Time Bin 20 (95-100 TOTAL), AVG [4]: 0.69
- BSS scoring E (eating/drinking), Time Bin 21 (100-105 TOTAL), AVG [4]: 0.73
- BSS scoring E (eating/drinking), Time Bin 22 (105-110 TOTAL), AVG [4]: 0.69
- BSS scoring E (eating/drinking), Time Bin 23 (110-115 TOTAL), AVG [4]: 0.52
- BSS scoring E (eating/drinking), Time Bin 24 (115-120 TOTAL), AVG [4]: 0.44
